Test results taken from patent USRE37781E1, “Substituted cyclic carbonyls and derivatives thereof useful as retroviral protease inhibitors” (DuPont Pharmaceuticals Company, priority 1991, dated 2002).
Converted amounts (≈) assume the structure as drawn. Read-outs that look alike come from different tables or passages of the source.

Columns and labels:
HIV-1 (RF) in MT-2 cells = test: microbe, parasite or virus in culture; format: cell-based
Procedure, shortened: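 Read-out: gag and pol viral RNA captured by 5′-biotinylated oligonucleotides on streptavidin-coated wells, detected with alkaline phosphatase-linked reporter oligonucleotides, calibrated against BH10 in vitro transcripts. Virus stocks (RF, MN, IIIB) come from H9 cultures; MT-2 host cells kept in RPMI 1640, 5% FCS.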

HIV protease = target: T1, HIV protease (Human immunodeficiency virus type 1 group M subtype B, UniProt P04585); test: biochemical; parameters: species or system HIV-1
T1 construct: plasmid containing HIV protease under the control of an inducible T7 promoter; made in house; host or cells: E. coli (inclusion bodies, T7 promoter)
Description: HIV Protease Inhibition Assay—Spectroscopic Method
Inclusion bodies were solubilized in 8M urea, 50 mM tris pH 8.0. Protease activity was recovered by dilution 20-fold into buffer containing 50 mM sodium acetate pH 5.5, 1 mM EDTA, 10% glycerol and 5% ethylene glycol. Enzyme was used at a final concentration of 1.0-10 ug/ml.
Stock solutions of 10 mM were prepared in DMSO.
All further dilutions were done in DMSO.

[1] = Human immunodeficiency virus 1, MT2, Table 1c, read-out: IC90
[2] = Human immunodeficiency virus 1, MT2, Table 2A, read-out: IC90
[3] = Human immunodeficiency virus 1, MT2, second table headed Table 2A, read-out: IC90
[4] = second table headed Table 2A, read-out: Ki

Work on `N#CN=C1N(Cc2ccc(OCc3ccccc3)cc2)C(Cc2ccccc2)C(O)C(O)C(Cc2ccccc2)N1Cc1ccc(OCc2ccccc2)cc1` (stereo not drawn) [Example 1BT] yielded an IC90 (HIV-1 (RF) in MT-2 cells; [1]) greater than 100 µg/mL, a melting point of 90.1 °C and a Ki (HIV protease; Ki) of 10 to 1000 nM.
Work on `CC(C)CCCCN1C(=O)N(CCCCC(C)C)C(Cc2ccccc2)C(O)C(O)C1Cc1ccccc1` (stereo not drawn) [Example 1AN] yielded a melting point of 105 to 107 °C and a Ki (HIV protease; Ki) of 10 to 1000 nM.
In the case of `CCCCN1C(=NC#N)N(CCCC)C(Cc2ccccc2)C(O)C(O)C1Cc1ccccc1` (stereo not drawn) [Example 1BX], the IC90 (HIV-1 (RF) in MT-2 cells; [1]) is reported as less than 10 µg/mL, the melting point is reported as 58.3 °C and the Ki (HIV protease; Ki) is reported as less than 10 nM.
`CC(C)CCCCCN1C(=O)N(CCCCCC(C)C)C(Cc2ccccc2)C(O)C(O)C1Cc1ccccc1` (stereo not drawn) [Example 1AL] gave a melting point of 144 to 145 °C and a Ki (HIV protease; Ki) of 10 to 1000 nM.
Compound `C=CCN1C(=O)N(Cc2ccccc2)C(Cc2ccccc2)C(O)C(O)C1Cc1ccccc1` (stereo not drawn) [Example 2G] has an IC90 (HIV-1 (RF) in MT-2 cells; [2]) of less than 10 µg/mL, an IC90 (HIV-1 (RF) in MT-2 cells; [3]) of less than 10 µg/mL and a melting point of 226.5 °C. The Ki (HIV protease; Table 2A, read-out: Ki) was less than 10 nM and the Ki (HIV protease; [4]) was less than 10 nM.
With `N#CN=C1N(Cc2ccc(CO)cc2)C(Cc2ccccc2)C(O)C(O)C(Cc2ccccc2)N1Cc1ccc(CO)cc1` (stereo not drawn) [Example 1CN] the IC90 (HIV-1 (RF) in MT-2 cells; [1]) was less than 10 µg/mL, the melting point was 100.9 °C and the Ki (HIV protease; Ki) was 10 to 1000 nM.
For `O=C1N(CCCc2ccccc2)C(Cc2ccccc2)C(O)C(O)C(Cc2ccccc2)N1CCCc1ccccc1` (stereo not drawn) [Example 2B], the IC90 (HIV-1 (RF) in MT-2 cells; [2]) was less than 10 µg/mL, the IC90 (HIV-1 (RF) in MT-2 cells; [3]) was less than 10 µg/mL and the melting point was 120.7 °C. It also gave a Ki (HIV protease; Table 2A, read-out: Ki) of 10 to 1000 nM and a Ki (HIV protease; [4]) of 10 to 1000 nM.
`CCCCCCN1C(=O)N(CCCCCC)C(Cc2ccccc2)C(O)C(O)C1Cc1ccccc1` (stereo not drawn) [Example 1Y] gave a melting point of 110 to 112 °C and a Ki (HIV protease; Ki) of less than 10 nM.
Work on `N#CN=C1N(Cc2cccc(C=NO)c2)C(Cc2ccccc2)C(O)C(O)C(Cc2ccccc2)N1Cc1cccc(C=NO)c1` (stereo not drawn) [Example 1CQ] yielded an IC90 (HIV-1 (RF) in MT-2 cells; [1]) of less than 10 µg/mL, a melting point of 121.2 °C and a Ki (HIV protease; Ki) of less than 10 nM.
In the case of `CC(C)CCN1C(=NC#N)N(CCC(C)C)C(Cc2ccccc2)C(O)C(O)C1Cc1ccccc1` (stereo not drawn) [Example 1CM], the IC90 (HIV-1 (RF) in MT-2 cells; [1]) is reported as less than 10 µg/mL, the melting point is reported as 76.1 °C and the Ki (HIV protease; Ki) is reported as 10 to 1000 nM.
Work on `C#CCN1C(=O)N(CC#C)C(Cc2ccccc2)C(O)C(O)C1Cc1ccccc1` (stereo not drawn) [Example 1AP] yielded a melting point of 198 to 200 °C and a Ki (HIV protease; Table 1a, read-out: Ki) of 10 to 1000 nM.
`N#CN=C1N(Cc2ccc(N)cc2)C(Cc2ccccc2)C(O)C(O)C(Cc2ccccc2)N1Cc1ccc(N)cc1` (stereo not drawn) [Example 1CE] showed an IC90 (HIV-1 (RF) in MT-2 cells; [1]) of less than 10 µg/mL, a melting point of 226.3 °C and a Ki (HIV protease; Ki) of 10 to 1000 nM.
Work on `N#CN=C1N(Cc2cccc(C#N)c2)C(Cc2ccccc2)C(O)C(O)C(Cc2ccccc2)N1Cc1cccc(C#N)c1` (stereo not drawn) [Example 1CH] yielded an IC90 (HIV-1 (RF) in MT-2 cells; [1]) of less than 10 µg/mL, a melting point of 108.5 °C and a Ki (HIV protease; Ki) of 10 to 1000 nM.
`CN1C(=O)N(Cc2ccccc2)C(Cc2ccccc2)C(O)C(O)C1Cc1ccccc1` (stereo not drawn) [Example 2H] showed an IC90 (HIV-1 (RF) in MT-2 cells; [2]) of less than 10 µg/mL, an IC90 (HIV-1 (RF) in MT-2 cells; [3]) of less than 10 µg/mL and a melting point of 81 °C. For the same compound, the Ki (HIV protease; Table 2A, read-out: Ki) was 10 to 1000 nM and the Ki (HIV protease; [4]) was 10 to 1000 nM.
With `N#CN=C1N(Cc2cccc(OCc3ccccc3)c2)C(Cc2ccccc2)C(O)C(O)C(Cc2ccccc2)N1Cc1cccc(OCc2ccccc2)c1` (stereo not drawn) [Example 1CA] the IC90 (HIV-1 (RF) in MT-2 cells; [1]) was greater than 100 µg/mL, the melting point was 75.2 °C and the Ki (HIV protease; Ki) was 10 to 1000 nM.
`N#CN=C1N(Cc2ccc([N+](=O)[O-])cc2)C(Cc2ccccc2)C(O)C(O)C(Cc2ccccc2)N1Cc1ccc([N+](=O)[O-])cc1` (stereo not drawn) [Example 1CB] showed an IC90 (HIV-1 (RF) in MT-2 cells; Human immunodeficiency virus 1, MT2) of 10 to 100 µg/mL (≈ 16.1 to 161 µM), a melting point of 130.3 °C and a Ki (HIV protease; Ki, Table 1c, cyclic guanidines) of 10 to 1000 nM.
For `C=CCN1C(=NC#N)N(CC=C)C(Cc2ccccc2)C(O)C(O)C1Cc1ccccc1` (stereo not drawn) [Example 1BW], the IC90 (HIV-1 (RF) in MT-2 cells; [1]) was 10 to 100 µg/mL (≈ 23.2 to 232 µM), the melting point was 70.2 °C and the Ki (HIV protease; Ki) was 10 to 1000 nM.
With `N#CN=C1N(Cc2cccc(O)c2)C(Cc2ccccc2)C(O)C(O)C(Cc2ccccc2)N1Cc1cccc(O)c1` (stereo not drawn) [Example 1CD] the IC90 (HIV-1 (RF) in MT-2 cells; [1]) was less than 10 µg/mL, the melting point was 124 °C and the Ki (HIV protease; Ki) was less than 10 nM.
For `C=CCN1C(=O)N(CC=C(C)C)C(Cc2ccccc2)C(O)C(O)C1Cc1ccccc1` (stereo not drawn) [Example 2C], the IC90 (HIV-1 (RF) in MT-2 cells; [2]) was less than 10 µg/mL, the IC90 (HIV-1 (RF) in MT-2 cells; [3]) was less than 10 µg/mL and the melting point was 62 °C. For the same compound, the Ki (HIV protease; Table 2A, read-out: Ki) was less than 10 nM and the Ki (HIV protease; [4]) was less than 10 nM.
Compound `O=C1N(Cc2ccc(OC(F)(F)F)cc2)C(Cc2ccccc2)C(O)C(O)C(Cc2ccccc2)N1Cc1ccc(OC(F)(F)F)cc1` (stereo not drawn) [Example 2L] has an IC90 (HIV-1 (RF) in MT-2 cells; [2]) of less than 10 µg/mL, an IC90 (HIV-1 (RF) in MT-2 cells; [3]) of less than 10 µg/mL and a melting point of 136.8 °C. The Ki (HIV protease; Table 2A, read-out: Ki) was 10 to 1000 nM and the Ki (HIV protease; [4]) was 10 to 1000 nM.
`N#CN=C1N(Cc2ccc3ccccc3c2)C(Cc2ccccc2)C(O)C(O)C(Cc2ccccc2)N1Cc1ccc2ccccc2c1` (stereo not drawn) [Example 1BY] showed an IC90 (HIV-1 (RF) in MT-2 cells; [1]) greater than 100 µg/mL, a melting point of 111.1 °C and a Ki (HIV protease; Ki) of 10 to 1000 nM.
Compound `N#CN=C1N(Cc2cccc(CO)c2)C(Cc2ccccc2)C(O)C(O)C(Cc2ccccc2)N1Cc1cccc(CO)c1` (stereo not drawn) [Example 1CO] has an IC90 (HIV-1 (RF) in MT-2 cells; [1]) of less than 10 µg/mL, a melting point of 193.8 °C and a Ki (HIV protease; Ki) of less than 10 nM.
